Test results from patent US20240352010A1, “SUBSTITUTED 1,2,4-THIADIAZOLYL NICOTINAMIDES, SALTS OR N-OXIDES THEREOF AND THEIR USE AS HERBICIDALLY ACTIVE SUBSTANCES” (BayerAktiengesellschaft, priority 2021, published 2024).

Assays:
Format in all cases: in vivo
[1] = test system: Matricaria inodora (MATIN); assay: Herbicidal pre-emergence action, MATIN
Excerpt: (§1) Seeds of mono- and dicotyledonous weed plants were sown in plastic pots (double sowings with one species of mono- and one species of dicotyledonous weed plants per pot), in sandy loam, and covered with soil. The compounds according to the invention, formulated in the form of wettable powders (WP) or as emulsifiable concentrates (EC), were applied to the surface of the covering soil as an aqueous suspension or as an emulsion, with the addition of 0.5% of an additive, at an application rate of 600 litres of water per hectare (converted). Following treatment, the pots were placed in a greenhouse and kept under optimum growth conditions for the test plants. The visual grading of the damage to the test plants is carried out after ca. 3 weeks in comparison to untreated controls (herbicidal effect in percent (%): 100% effect=plants have died, 0% effect=as control plants). Seeds of mono- and dicotyledonous weed plants were sown in plastic pots (double sowings with one species of mono- and one species of dicotyledonous weed plants per pot), in sandy loam, and covered with soil. The compounds according to the invention, formulated in the form of wettable powders (WP) or as emulsifiable concentrates (EC), were applied to the surface of the covering soil as an aqueous suspension or as an emulsion, with the addition of 0.5% of an additive, at an application rate of 600 litres of water per hectare (converted). Following treatment, the pots were placed in a greenhouse and kept under optimum growth conditions for the test plants. The visual grading of the damage to the test plants is carried out after ca. 3 weeks in comparison to untreated controls (herbicidal effect in percent (%): 100% effect=plants have died, 0% effect=as control plants).

[2] = test system: Amaranthus retroflexus (AMARE); assay: Herbicidal pre-emergence action, AMARE
Excerpt: as §1

[3] = test system: Stellaria media (STEME); assay: Herbicidal pre-emergence action, STEME
Excerpt: as §1

[4] = test system: Amaranthus retroflexus (AMARE); assay: Herbicidal post-emergence action, AMARE
Excerpt: (§2) Seeds of mono- and dicotyledonous weed plants were sown in plastic pots (double sowings with one species of mono- and one species of dicotyledonous weed plants per pot), in sandy loam, covered with soil and grown under controlled growth conditions. 2 to 3 weeks after sowing, the test plants were sprayed in the single-leaf stage. The compounds according to the invention, formulated in the form of wettable powders (WP) or as emulsifiable concentrates (EC), were sprayed onto the green plant parts as an aqueous suspension or as an emulsion, with the addition of 0.5% of an additive, at an application rate of 600 litres of water per hectare (converted). The test plants were placed in the greenhouse for ca. 3 weeks under optimum growth conditions, and then the effect of the preparations is assessed visually in comparison with untreated controls (herbicidal effect in percent (%): 100% effect=plants have died, 0% effect=as control plants). […]

[5] = test system: Kochia scoparia (KCHSC); assay: Herbicidal post-emergence action, KCHSC
Excerpt: as §2

[6] = test system: Stellaria media (STEME); assay: Herbicidal post-emergence action, STEME
Excerpt: as §2

[7] = test system: Veronica persica (VERPE); assay: Herbicidal post-emergence action, VERPE
Excerpt: as §2

[8] = test system: Setaria viridis (SETVI); assay: Herbicidal pre-emergence action, SETVI
Excerpt: as §1

[9] = test system: Matricaria inodora (MATIN); assay: Herbicidal post-emergence action, MATIN
Excerpt: as §2

[10] = test system: Setaria viridis (SETVI); assay: Herbicidal post-emergence action, SETVI; conditions: 1280 g/ha, assessed visually after ca. 3 weeks vs untreated controls (Table B7)
Excerpt: as §2

[11] = test system: Kochia scoparia (KCHSC); assay: Herbicidal pre-emergence action, KCHSC; conditions: 1280 g/ha, visual grading after ca. 3 weeks vs untreated controls (Table A4)
Excerpt: as §1

[12] = test system: Lolium rigidum (LOLRI); assay: Herbicidal pre-emergence action, LOLRI
Excerpt: as §1

[13] = test system: Poa annua (POAAN); assay: Herbicidal pre-emergence action, POAAN
Excerpt: as §1

[14] = test system: Abutilon theophrasti (ABUTH); assay: Herbicidal post-emergence action, ABUTH; conditions: 1280 g/ha, assessed visually after ca. 3 weeks vs untreated controls (Table B1)
Excerpt: (§3) Seeds of mono- and dicotyledonous weed plants were sown in plastic pots (double sowings with one species of mono- and one species of dicotyledonous weed plants per pot), in sandy loam, covered with soil and grown under controlled growth conditions. 2 to 3 weeks after sowing, the test plants were sprayed in the single-leaf stage. The compounds according to the invention, formulated in the form of wettable powders (WP) or as emulsifiable concentrates (EC), were sprayed onto the green plant parts as an aqueous suspension or as an emulsion, with the addition of 0.5% of an additive, at an application rate of 600 litres of water per hectare (converted). The test plants were placed in the greenhouse for ca. 3 weeks under optimum growth conditions, and then the effect of the preparations is assessed visually in comparison with untreated controls (herbicidal effect in percent (%): 100% effect=plants have died, 0% effect=as control plants).

[15] = test system: Digitaria sanguinalis (DIGSA); assay: Herbicidal post-emergence action, DIGSA; conditions: 1280 g/ha, assessed visually after ca. 3 weeks vs untreated controls (Table B12)
Excerpt: as §3

[16] = test system: Poa annua (POAAN); assay: Herbicidal post-emergence action, POAAN
Excerpt: as §2

[17] = test system: Echinochloa crus-galli (ECHCG); assay: Herbicidal post-emergence action, ECHCG; conditions: 1280 g/ha, assessed visually after ca. 3 weeks vs untreated controls (Table B3)
Excerpt: as §2

[18] = 320 g/ha, visual grading after ca. 3 weeks vs untreated controls (Table C3)
[19] = 1280 g/ha, visual grading after ca. 3 weeks vs untreated controls (Table A6)
[20] = 1280 g/ha, visual grading after ca. 3 weeks vs untreated controls (Table A11)
[21] = 320 g/ha, visual grading after ca. 3 weeks vs untreated controls (Table C6)
[22] = 1280 g/ha, visual grading after ca. 3 weeks vs untreated controls (Table A9)
[23] = 1280 g/ha, assessed visually after ca. 3 weeks vs untreated controls (Table B11)
[24] = 1280 g/ha, assessed visually after ca. 3 weeks vs untreated controls (Table B4)
[25] = 1280 g/ha, assessed visually after ca. 3 weeks vs untreated controls (Table B9)
[26] = 1280 g/ha, assessed visually after ca. 3 weeks vs untreated controls (Table B10)
[27] = 1280 g/ha, visual grading after ca. 3 weeks vs untreated controls (Table A8)
[28] = 320 g/ha, assessed visually after ca. 3 weeks vs untreated controls (Table D6)
[29] = 1280 g/ha, assessed visually after ca. 3 weeks vs untreated controls (Table B6)
[30] = 320 g/ha, assessed visually after ca. 3 weeks vs untreated controls (Table D4)
[31] = 1280 g/ha, visual grading after ca. 3 weeks vs untreated controls (Table A5)
[32] = 1280 g/ha, visual grading after ca. 3 weeks vs untreated controls (Table A7)
[33] = 1280 g/ha, assessed visually after ca. 3 weeks vs untreated controls (Table B8)

SMILES | herbicidal effect in percent, MATIN [1, 18] | herbicidal effect in percent, MATIN [1, 19] | herbicidal effect in percent, AMARE [2, 20] | herbicidal effect in percent, STEME [3, 21] | herbicidal effect in percent, STEME [3, 22] | herbicidal effect in percent, AMARE [4, 23] | herbicidal effect in percent, KCHSC [5, 24] | herbicidal effect in percent, STEME [6, 25] | herbicidal effect in percent, VERPE [7, 26] | herbicidal effect in percent, SETVI [8, 27] | herbicidal effect in percent, AMARE [4, 28] | herbicidal effect in percent, MATIN [9, 29] | herbicidal effect in percent, KCHSC [11] | herbicidal effect in percent, POAAN [13, 32] | herbicidal effect in percent, POAAN [16, 33] | further results
COc1nccc(C2CC2(F)F)c1C(=O)Nc1ncns1 (stereo not shown) [Example I-001, 4-(2,2-difluorocyclopropyl)-2-methoxy-N-(1,2,4-thiadiazol-5-yl)pyridine-3-carboxamide] | 90% | 90% | – | – | – | – | – | – | – | – | – | – | – | – | – | –
O=C(Nc1ncns1)c1c(C2CC2(F)F)ccnc1F (stereo not shown) [Example I-002, 4-(2,2-difluorocyclopropyl)-2-fluoro-N-(1,2,4-thiadiazol-5-yl)pyridine-3-carboxamide] | 90% | 100% | 100% | 90% | 90% | 90% | 90% | 90% | 90% | – | – | – | – | – | – | –
CC1CC1c1ccnc(Cl)c1C(=O)Nc1ncns1 (stereo not shown) [Example I-004] | – | 90% | 100% | – | 90% | 100% | 90% | 100% | 90% | 90% | 100% | 100% | – | – | – | herbicidal effect in percent, SETVI [10]: 100%; herbicidal effect in percent, STEME [6, 30]: 90%
O=C(Nc1ncns1)c1c(C2CC2)ccnc1C(F)(F)F [Example I-006] | 90% | 100% | 90% | 100% | 100% | 100% | 100% | 100% | 90% | 90% | 90% | – | 90% | 90% | 90% | herbicidal effect in percent, LOLRI ([12]; 320 g/ha, visual grading after ca. 3 weeks vs untreated controls (Table C2)): 90%; herbicidal effect in percent, LOLRI [12, 31]: 90%; herbicidal effect in percent, POAAN ([13]; 320 g/ha, visual grading after ca. 3 weeks vs untreated controls (Table C4)): 90%; herbicidal effect in percent, ABUTH [14]: 90%; herbicidal effect in percent, DIGSA [15]: 90%; herbicidal effect in percent, KCHSC ([5]; dosage printed 1280 g/ha in Table D1, assessed visually after ca. 3 weeks vs untreated controls): 90%; herbicidal effect in percent, STEME ([6]; dosage printed 1280 g/ha in Table D4, assessed visually after ca. 3 weeks vs untreated controls): 90%
COc1nccc(C2CC2)c1C(=O)Nc1ncns1 [Example I-007] | – | – | 100% | 90% | 90% | – | – | – | – | – | – | – | – | 90% | – | –
O=C(Nc1ncns1)c1cnccc1C1CC1 [Example I-008] | – | – | 100% | 90% | 90% | 100% | 90% | 100% | 90% | – | 90% | 100% | 90% | 90% | 90% | herbicidal effect in percent, AMARE ([2]; 320 g/ha, visual grading after ca. 3 weeks vs untreated controls (Table C8)): 90%
C=C(C)c1ccnc(Cl)c1C(=O)Nc1ncns1 [Example I-009] | – | 100% | – | – | 90% | 90% | – | 90% | – | 100% | – | – | – | – | – | herbicidal effect in percent, SETVI ([8]; 320 g/ha, visual grading after ca. 3 weeks vs untreated controls (Table C5)): 90%
O=C(Nc1nc(Br)ns1)c1c(C2CC2)ccnc1Cl [Example I-010] | 90% | 100% | 90% | – | 100% | 90% | – | 90% | 90% | – | – | 90% | 90% | – | 90% | herbicidal effect in percent, LOLRI [12, 31]: 90%; herbicidal effect in percent, ECHCG [17]: 90%; herbicidal effect in percent, MATIN ([9]; 320 g/ha, assessed visually after ca. 3 weeks vs untreated controls (Table D2)): 90%; herbicidal effect in percent, POAAN ([16]; 320 g/ha, assessed visually after ca. 3 weeks vs untreated controls (Table D3)): 90%; herbicidal effect in percent, STEME [6, 30]: 90%; herbicidal effect in percent, VERPE ([7]; 320 g/ha, assessed visually after ca. 3 weeks vs untreated controls (Table D5)): 90%
Cc1nsc(NC(=O)c2c(C3CC3)ccnc2Cl)n1 [Example I-011] | 100% | 100% | – | – | 90% | – | – | 90% | 90% | – | – | – | – | – | – | –
